Experimental data from patent publication US11554124B2, “Hematopoiesis-enhancing agent” (priority 2018, dated 2023).

Tested on: bone marrow erythroblasts
Assay: Flow cytometry of bone marrow cells / erythroblast subsets (Ter119/CD71 double staining) of treated mice
Assay type: in vivo, mouse
Experimental: Wild-type mice with a genetic background of C57BL/6J were purchased from Charles River Laboratories, Inc. Mice at 8 to 14 weeks of age were used for analysis. For CLEU treatment (50 mg/body), a solution of cycloleucine (CLEU) was prepared by diluting cycloleucine (CLEU) (Sigma) in PBS (50 mg/ml), and 1 ml of the CLEU solution was administered intraperitoneally. For AKBA treatment (2 mg/body), 2 mg AKBA (Enzo Life Sciences)/20% DMSO/1 mL PBS solution was administered intraperitoneally. Vehicle without AKBA was used as a control. For measuring complete blood count of peripheral blood, peripheral blood was collected from facial veins and counted by use of an automated animal blood cell counter (microsemi LC-662). All of the experiments conducted in this study were approved by the Animal Experiment Committee of the Environmental Safety Committee of Tohoku University.
BM cells and spleen cells were harvested in a conventional manner. Cells were stained with combinations of antibodies specific to erythroblasts and mature cells, to thereby identify them. The cells were visualized with antibody and streptavidin-peridinin chlorophyll protein-cyanin 5.5. The antibodies used in this study were as follows: anti-CD3e (145-2C11), anti-CD4 (GK1.5 or RM4.5), anti-CD8a (53-6.7), anti-Gr-1 (RB6-8C5), anti-B220 (RA3-6B2), anti-Ter-119 (TER-119), anti-CD71 (R17217 or C2). Cells were stained with […] (Sigma), and dead cells were excluded from analysis. Flow cytometric analysis and cell sorting were performed according to the manufacturer's protocol using FACS AriaII (BD), and then the obtained data were analyzed using FlowJo software (TreeStar).
Additionally, MAT inhibitor PF9366 (PF) was administered to mice and the effect thereof was investigated. Vehicle (DMSO) (control (Ctrl)) or 10 mM PF9366 (prepared at a concentration of 40 μl/40 ml water) was provided in a drinking bottle (0 h). In addition, 80 μl of vehicle (DMSO) or 80 μl of 10 mM PF9366 dissolved in 1 ml PBS was also administered intraperitoneally at 0 h and 24 h. Analysis was carried out at Day 2 (48 h).
MAT inhibitor 3-acetyl-11-keto-β-boswellic acid (AKBA; 2 mg/body) was intraperitoneally administered to mice at 0 and 24 hours, and analyzed after 48 hours.

[1] = PF9366 in drinking water plus i.p. at 0 h and 24 h, Day 2 (48 h), vs DMSO

| Structure (SMILES) | maturation of erythroblasts (AKBA 2 mg/body i.p. at 0 and 24 hours, analyzed after 48 hours, Ter119/CD71 double staining, vs vehicle) | subset from which the increase of erythroblast was initiated (PF9366 10 mM: 40 μl/40 ml drinking water plus 80 μl in 1 ml PBS i.p. at 0 h and 24 h, Day 2 (48 h), vs DMSO) | erythroblast maturation index [1] | maturation of erythroblasts [1] |
| --- | --- | --- | --- | --- |
| CC(=O)O[C@@H]1CC[C@@]2(C)[C@@H](CC[C@]3(C)[C@@H]2C(=O)C=C2[C@@H]4[C@@H](C)[C@H](C)CC[C@]4(C)CC[C@]23C)[C@@]1(C)C(=O)O [AKBA, 3-acetyl-11-keto-β-boswellic acid] | significantly up-regulated |  |  |  |
| CN(C)CCc1nnc2cc(-c3ccccc3)c3cc(Cl)ccc3n12 [PF9366, 2-(7-chloro-5-phenyl-[1,2,4]triazolo[4,3-a]quinolin-1-yl)-N,N-dimethylethan-1-amine] |  | initiated from subset III | significant difference | significantly up-regulated |
